Assay results reported in US9989535B2, “Methods and reagents for analyzing protein-protein interfaces” (Warp Drive Bio, Inc., priority 2015, dated 2018).

Legend:
MCL1S245C/FKBP52 = MCL1S245C/FKBP52 (Homo sapiens, UniProt Q02790+Q07820, C286S/S245C); assay: Crystal structure of MCL1S245C/C3SLF/FKBP52 ternary complex; details: 3.0 Å
Description: Experimental Protocol: […] and FKBP52 were mixed with MCL1[…] lite at 3:1 molar excess in 12.5 mM HEPES pH 7.4, 75 mM NaCl buffer, 2% DMSO, and incubated 24-48 hours at 4° C. Pure complex was isolated by size exclusion chromatography on a Superdex 75 column in 12.5 mM HEPES pH 7.4 and 75 mM NaCl. Purified complex (at 15 mg/ml) was subjected to crystallization screening at 20° C. using sitting drop vapor diffusion method. Crystals were grown in a well solution containing 2.1 M Malic acid. For data collection, crystals were transferred to a solution containing mother liquor supplemented with 20% glycerol, and then flash-frozen in liquid nitrogen. 3.0 Å resolution diffraction dataset was measured at the Advanced Photon Source (APS) and processed with the XDS program. Molecular replacement solutions were obtained using the program PHASER in the CCP4 suite, using the published structure of FKBP52 (PDB-ID 1N1A) and […] (PDB-ID 3MK8) as search models. Subsequent model building and refinement were performed according to standard protocols with the software packages CCP4 and COOT.

PTP1BS187C lite/FKBP12 = target: T1, PTP1BS187C lite/FKBP12 (Homo sapiens, UniProt P18031+P62942, C121S/C32S/C92V/S187C); assay: Ternary complex formation by SEC and SDS-PAGE; format: binding; details: SEC profile and SDS-PAGE of elution peaks
T1 construct: residues 1-293 containing C32S/C92V/C121S/S187C; made in house
T1 sequence (P18031 1-293 C32S/C92V/C121S/S187C limits assumed): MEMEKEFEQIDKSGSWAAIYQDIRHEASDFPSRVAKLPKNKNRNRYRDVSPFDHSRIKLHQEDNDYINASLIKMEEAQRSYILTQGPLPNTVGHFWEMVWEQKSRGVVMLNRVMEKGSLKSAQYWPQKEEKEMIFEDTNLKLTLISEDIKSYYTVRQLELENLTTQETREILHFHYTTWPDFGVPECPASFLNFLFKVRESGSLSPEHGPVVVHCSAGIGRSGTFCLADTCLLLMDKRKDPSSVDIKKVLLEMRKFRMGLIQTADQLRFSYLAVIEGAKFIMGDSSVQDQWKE
T1 sequence (P62942 whole entry, the tested form may be a part): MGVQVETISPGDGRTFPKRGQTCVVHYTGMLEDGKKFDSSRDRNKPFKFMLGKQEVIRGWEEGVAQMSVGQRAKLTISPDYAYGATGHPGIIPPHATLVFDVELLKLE
Description: A 1:2:2 molar ratio of compound, presenter protein, and target protein are mixed together in 12.5 mM HEPES pH 7.4, 75 mM NaCl buffer containing 2% DMSO. The reaction is incubated at 37° C. for 30 min, followed by overnight incubation at room temperature. Pure complex is isolated by Size Exclusion Chromatography (SEC) purification. The reaction mixture is directly injected on a Superdex 75 column (CV 120 mL) pre-equilibrated with buffer containing 12.5 mM HEPES pH 7.4, 75 mM NaCl. Complex elutes at a higher molecular weight than unreacted target protein and presenter protein. To confirm presence of complex in the elution peak, samples are assessed by SDS-PAGE.
Experimental Protocol: A 1:3:3 molar ratio of C3-SLF, FKBP12, and PTP1BS187C lite are mixed together in 12.5 mM HEPES pH 7.4, 75 mM NaCl buffer containing 4% DMSO. The reaction is incubated at 37° C. for 30 min, followed by overnight incubation at room temperature. Pure complex is isolated by Size Exclusion Chromatography (SEC) purification. The reaction mixture is directly injected on a Superdex 75 column (CV 120 mL) pre-equilibrated with buffer containing 12.5 mM HEPES pH 7.4, 75 mM NaCl. […] To confirm the presence of PTP1BS187C lite and FKBP12 in the elution peak, samples are also assessed by SDS-PAGE. […]

KRASGTP/G12C [1] = target: T2, KRASGTP/G12C (Homo sapiens, UniProt P01116+P62942, G12C); assay: Cross-linking gel shift assay (12% SDS-PAGE), with or without FKBP12; format: binding; details: 60 μM KRAS, 180 μM FKBP12, 180 μM ligand, quenched by MMTS
T2 construct: KRASGTP/G12C (in-house, residues 1-169); made in house
Description: In parallel to mass spectrometry analysis, cross-linking reactions with C3- or C4-SLF were subjected to gel shift assay using 12% SDS-PAGE in the presence or absence of FKBP12 at the same experimental condition described above except that cross-linking reactions were set up at higher concentrations (60 μM KRAS, 180 μM FKBP12, and 180 μM C3- or C4-SLF) and they were quenched by MMTS to terminate the reaction.

KRASGTP/G12C [2] = target: T2, KRASGTP/G12C; assay: Disulfide cross-linking efficiency by mass spectrometry, with or without FKBP12; format: binding; details: 2 μM KRAS, 10 μM ligand, 4 hours RT, MS
Description: Experimental protocol: In order to follow the kinetics of disulfide crosslinking reactions, Agilent 6230 TOF-LC/MS and Agilent 1260 HPLC instruments employing a AdvanceBio RP-mAb C4 column (2.1×100 mm, 3.5 μm) and equipped with an auto-sampler were used. HPLC grade acetonitrile and water (each containing 1.0 mM ammonium formate and 1% formic acid by volume) were used as mobile phase with the following ramp: 0.6 ml/min flow rate, water:acetonitrile=95:5 from 0.0 to 13.0 min ramping to water:acetonitrile=5:95 from 13.0 to 17.0 min. Total time=17.0 min.
All crosslinking reactions were performed in 1.5 mL amber colored glass vials equipped with 0.5 mL glass inserts. A water-soluble peptide (SEQ ID NO: 1: […]) was employed as an internal standard. Although the actual sequence of the internal standard is inconsequential, choice of amino acid residues were critical to avoid interference in the crosslinking assays. […] All reactions and standard solutions were prepared in HEPES (pH 7.4, 1.0 mM MgCl2) buffer.
Prior to every reaction, a standard curve was obtained for the individual components using a series of standard solutions (an example of standard curve analysis for FKBP12 is shown in Table 3 below). Using the data from standard curve, μmol of protein samples were plotted against the ratio of areas (sample:std) and a linear fit (y=mx+c) was employed to obtain the slope and intercept. The value of slope and intercept involved in these standard curves were accounted for during evaluation of the substrate and product concentration before and during the course of the reaction. For every substrate/product, an initial injection was followed up by a blank injection to verify presence of any residual protein/reagents. Based on this analysis the sequence of auto-sampler can be adjusted to included appropriate number of blank injections for removal of residual components, if any. The MS spectra were analyzed using Agilent MassHunter v B.07.0 software.
In a representative experiment to assess the presenter dependency of ligand cross-linking on the target protein, KRASGTP/G12C and either C3- or C4-SLF ligand were incubated in the presence or absence of FKBP12 at concentrations of 2 μM KRAS, 10 μM FKBP12, 10 μM C3- or C4-SLF for 4 hours at room temperature in 12.5 mM HEPES pH 7.4, 75 mM NaCl, 1 mM MgCl2, 3% DMSO. Analysis of the amount of KRAS undergoing disulfide cross-linking with the ligand using the method above.

FKBP12-PTP1BS187C = target: T3, FKBP12-PTP1BS187C (Homo sapiens, UniProt P18031+P62942, C121S/C32S/C92V/S187C); assay: Crystal structure of FKBP12-C3SLF-PTP1BS187C ternary complex
T3 construct: residues 1-293 containing C32S/C92V/C121S/S187C; made in house
T3 sequence (P18031 1-293 C32S/C92V/C121S/S187C limits assumed): as the sequence (P18031 1-293 C32S/C92V/C121S/S187C limits assumed) above
T3 sequence (P62942 whole entry, the tested form may be a part): as the sequence (P62942 whole entry, the tested form may be a part) above
Description: Experimental Protocol: […] and FKBP12 were added to PTP1B[…] lite at 3:1 molar excess in 12.5 mM HEPES pH 7.4, 75 mM NaCl buffer, 4% DMSO, and incubated 36-72 hours at 4° C. Pure complex was isolated by size exclusion chromatography on a Superdex 75 column in 12.5 mM HEPES pH 7.4 and 75 mM NaCl. Purified complex (at 15 mg/ml) was subjected to crystallization screening at 20° C. using sitting drop vapor diffusion method. Crystals were grown in a well solution containing 0.2 M Magnesium Acetate, 20% w/v PEG 3350. For data collection, crystals were transferred to a solution containing mother liquor supplemented with 25% PEG400, and then frozen in liquid nitrogen. Diffraction datasets were collected at the Advanced Photon Source (APS) and processed with the XDS program. Molecular replacement solutions were obtained using the program PHASER in the CCP4 suite, using the published structure of FKBP12 (PDB-ID 2PPN) and PTP1B (PDB-ID 2NT7) as search models. Subsequent model building and refinement were performed according to standard protocols with the software packages CCP4 and COOT.

Chain of MCL1S245C/FKBP52 (Q07820 172-327 S245C/C286S): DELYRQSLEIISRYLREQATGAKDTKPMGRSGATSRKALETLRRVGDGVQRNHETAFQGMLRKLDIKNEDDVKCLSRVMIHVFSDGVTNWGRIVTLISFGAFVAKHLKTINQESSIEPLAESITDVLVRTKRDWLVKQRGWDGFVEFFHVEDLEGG
Chain of MCL1S245C/FKBP52 (Q02790 1-140): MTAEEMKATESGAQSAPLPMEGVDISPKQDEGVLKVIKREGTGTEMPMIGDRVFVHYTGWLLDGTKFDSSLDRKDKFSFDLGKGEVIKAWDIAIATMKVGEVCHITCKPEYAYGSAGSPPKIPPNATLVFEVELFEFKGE

CCC(C)(C)C(=O)C(=O)N1CCCC[C@H]1C(=O)O[C@H](CCc1ccc(OC)c(OC)c1)c1cccc(NC(=O)CCSSc2ccccn2)c1 [Compound C3-SLF, (R)-3-(3,4-dimethoxyphenyl)-1-(3-(3-(pyridin-2-yldisulfanyl)propanamido)phenyl)propyl (S)-1-(3,3-dimethyl-2-oxopentanoyl)piperidine-2-carboxylate]
Buried surface area of the complex contributed by ligand (MCL1S245C/FKBP52): 606 Å2
Formation of PTP1BS187C lite/C3-SLF/FKBP12 complex (PTP1BS187C lite/FKBP12): confirm the formation
Ligand cross-linking efficiency in the presence of FKBP12, gel shift (KRASGTP/G12C [1]): boosted significantly
% × link to KRAS (KRASGTP/G12C [2]; FKBP12 absent (−)): 9.6%
% × link to KRAS (KRASGTP/G12C [2]; FKBP12 present (+) 10 μM): 47.5%
Buried surface area of ligand (FKBP12-PTP1BS187C): 615 Å^2
